Literature values, collected in patent publication US7109169B2, “Method for treating heart failure by inhibiting the sarcolemmal sodium/calcium exchange” (priority 2002, dated 2006).

N=C(N)SCCc1ccc(OCc2ccc([N+](=O)[O-])cc2)cc1 [KB-R7943]
mode of the Na/Ca exchanger inhibited (Na/Ca exchanger): predominantly the Ca-entry mode
specificity of action (Na/Ca exchanger; inhibits a variety of ion channels in the cardiac membrane): completely non-specific
effect on cardiac contractility (cardiac contractility): no effect
